Values joined by “and” are separate entries in the source; they are usually repeats but may differ in a detail not shown here. Equal values may be shown once. Records with an inconclusive call do not appear.
Test system: CD8F1 mice, subcutaneous mammary adenocarcinoma, T/C%
Experiment: NCI In Vivo Anticancer Drug Screen. Data for tumor model Mammary Adenocarcinoma CD8F1 (subcutaneous) in CD8F1
Settings: higher = larger tumour
In short: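 Transplantable tumors were established in mice, animals were dosed with compound or vehicle, and survival or tumor size was then measured in both groups. The treated result was divided by the control result.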

[1] = endpoint: median tumor weight (est.), dose: 6.25 mg/kg/injection, schedule: Q07DX005 (ip), vehicle: saline
[2] = endpoint: median tumor weight (est.), dose: 12.5 mg/kg/injection, schedule: Q07DX005 (ip), vehicle: saline
[3] = endpoint: median tumor weight (est.), dose: 50.0 mg/kg/injection, schedule: Q07DX005 (ip), vehicle: saline
[4] = endpoint: median tumor weight change, dose: 62.5 mg/kg/injection, schedule: Q01DX001 (ip), vehicle: saline with Tween-80
[5] = endpoint: median tumor weight change, dose: 125.0 mg/kg/injection, schedule: Q01DX001 (ip), vehicle: saline with Tween-80
[6] = endpoint: median tumor weight (est.), dose: 6.25 mg/kg/injection, schedule: Q07DX005 (ip), vehicle: saline with Tween-80
[7] = endpoint: median tumor weight (est.), dose: 12.5 mg/kg/injection, schedule: Q07DX005 (ip), vehicle: saline with Tween-80
[8] = endpoint: median tumor weight (est.), dose: 25.0 mg/kg/injection, schedule: Q07DX005 (ip), vehicle: saline with Tween-80
[9] = endpoint: median tumor weight (est.), dose: 50.0 mg/kg/injection, schedule: Q07DX005 (ip), vehicle: saline with Tween-80
[10] = endpoint: median tumor weight (est.), dose: 100.0 mg/kg/injection, schedule: Q07DX005 (ip), vehicle: saline
[11] = endpoint: median tumor weight (est.), dose: 100.0 mg/kg/injection, schedule: Q07DX005 (ip), vehicle: saline with Tween-80
[12] = endpoint: median tumor weight (est.), dose: 400.0 mg/kg/injection, schedule: Q07DX005 (ip), vehicle: saline with Tween-80

## OCCN1CCN(CCCN2c3ccccc3Sc3ccc(C(F)(F)F)cc32)CC1
endpoint: median tumor weight (est.), dose: 3.12 mg/kg/injection, schedule: Q07DX005 (ip), vehicle: saline
  T/C: 85 % of control and 109 % of control
[1]
  T/C: 107 % of control and 122 % of control
[2]
  T/C: 80 % of control and 83 % of control
[3]
  T/C: 47 % of control and 48 % of control

## O=C(CN1CCOCC1)Nc1nc(-c2ccc(Cl)cc2)cs1
endpoint: median tumor weight change, dose: 50.0 mg/kg/injection, schedule: Q01DX001 (ip), vehicle: saline with Tween-80
  T/C: 47 % of control
endpoint: median tumor weight change, dose: 100.0 mg/kg/injection, schedule: Q01DX001 (ip), vehicle: saline with Tween-80
  T/C: 20 % of control
endpoint: median tumor weight change, dose: 200.0 mg/kg/injection, schedule: Q01DX001 (ip), vehicle: saline with Tween-80
  T/C: 49 % of control
endpoint: median tumor weight change, dose: 400.0 mg/kg/injection, schedule: Q01DX001 (ip), vehicle: saline with Tween-80
  T/C: 35 % of control
endpoint: median tumor weight change, dose: 800.0 mg/kg/injection, schedule: Q01DX001 (ip), vehicle: saline with Tween-80
  T/C: 28 % of control

## CC(=O)OC(C)C1C2=C(C(=O)CC1(C)O)C(=O)c1c(ccc(-c3ccc4c(c3O)C(=O)C3=C(C4=O)C(C(C)OC(C)=O)C(C)(O)CC3=O)c1O)C2=O (stereo not drawn)
endpoint: median tumor weight change, dose: 3.75 mg/kg/injection, schedule: Q01DX001 (ip), vehicle: saline with Tween-80
  T/C: 105 % of control
endpoint: median tumor weight change, dose: 7.5 mg/kg/injection, schedule: Q01DX001 (ip), vehicle: saline with Tween-80
  T/C: 42 % of control
endpoint: median tumor weight change, dose: 15.0 mg/kg/injection, schedule: Q01DX001 (ip), vehicle: saline with Tween-80
  T/C: 88 % of control
endpoint: median tumor weight change, dose: 30.0 mg/kg/injection, schedule: Q01DX001 (ip), vehicle: saline with Tween-80
  T/C: 83 % of control

## CC(C)NCC(O)COc1cccc2ccccc12 (stereo not drawn)
endpoint: mean tumor weight, dose: 4.0 mg/kg/injection, schedule: Q07DX007 (ip), vehicle: Klucel (hydroxypropylcellulose) (HPC)
  T/C: 61 % of control
endpoint: mean tumor weight, dose: 8.0 mg/kg/injection, schedule: Q07DX007 (ip), vehicle: Klucel (hydroxypropylcellulose) (HPC)
  T/C: 92 % of control
endpoint: mean tumor weight, dose: 32.0 mg/kg/injection, schedule: Q07DX007 (ip), vehicle: Klucel (hydroxypropylcellulose) (HPC)
  T/C: 88 % of control
endpoint: mean tumor weight, dose: 64.0 mg/kg/injection, schedule: Q07DX007 (ip), vehicle: Klucel (hydroxypropylcellulose) (HPC)
  T/C: 43 % of control

## CCOC(=O)C(CC(C)C)NC(=O)C(Cc1ccc(N(CCCl)CCCl)cc1)NC(C)=O (stereo not drawn)
endpoint: median tumor weight (est.), dose: 8.0 mg/kg/injection, schedule: Q07DX005 (ip), vehicle: saline with Tween-80
  T/C: 112 % of control
endpoint: median tumor weight (est.), dose: 32.0 mg/kg/injection, schedule: Q07DX005 (ip), vehicle: saline with Tween-80
  T/C: 49 % of control and 58 % of control
endpoint: median tumor weight (est.), dose: 64.0 mg/kg/injection, schedule: Q07DX005 (ip), vehicle: saline with Tween-80
  T/C: 9 % of control

## O=[N+]([O-])c1ccc(Sc2ccncn2)c([N+](=O)[O-])c1
[4]
  T/C: 108 % of control
[5]
  T/C: 62 % of control

## COC1C(O)CC(OC2CC(Oc3cc4cc5c(c(O)c4c(O)c3C)C(=O)[C@@H](OC3CC(OC4CC(OC6CC(C)(O)C(OC(C)=O)C(C)O6)C(O)C(C)O4)C(O)C(C)O3)[C@H]([C@H](OC)C(=O)[C@@H](O)[C@@H](C)O)C5)OC(C)C2OC(C)=O)OC1C (stereo partly drawn)
endpoint: median tumor weight (est.), dose: 0.04 mg/kg/injection, schedule: Q07DX005 (ip), vehicle: saline
  T/C: 46 % of control
endpoint: median tumor weight (est.), dose: 0.09 mg/kg/injection, schedule: Q07DX005 (ip), vehicle: saline
  T/C: 93 % of control
endpoint: median tumor weight (est.), dose: 0.36 mg/kg/injection, schedule: Q07DX005 (ip), vehicle: saline
  T/C: 70 % of control
endpoint: median tumor weight (est.), dose: 0.72 mg/kg/injection, schedule: Q07DX005 (ip), vehicle: saline
  T/C: 76 % of control and 92 % of control
endpoint: median tumor weight change, dose: 0.25 mg/kg/injection, schedule: Q01DX001 (ip), vehicle: saline
  T/C: 63 % of control
endpoint: median tumor weight change, dose: 0.5 mg/kg/injection, schedule: Q01DX001 (ip), vehicle: saline
  T/C: 42 % of control
endpoint: median tumor weight change, dose: 1.0 mg/kg/injection, schedule: Q01DX001 (ip), vehicle: saline
  T/C: 44 % of control

## C[n+]1ccc(Nc2ccc(NC(=O)c3ccc(Nc4cc[n+](C)c5ccc(N)cc45)cc3)cc2)cc1
endpoint: median tumor weight (est.), dose: 16.0 mg/kg/injection, schedule: Q07DX005 (ip), vehicle: Klucel (hydroxypropylcellulose) (HPC)
  T/C: 51 % of control and 65 % of control
endpoint: median tumor weight (est.), dose: 32.0 mg/kg/injection, schedule: Q07DX005 (ip), vehicle: Klucel (hydroxypropylcellulose) (HPC)
  T/C: 24 % of control and 25 % of control

## BrCC[Se]c1ccccc1
[6]
  T/C: 78 % of control
[7]
  T/C: 104 % of control
[8]
  T/C: 80 % of control
[9]
  T/C: 152 % of control

## CC1(C)N=C(N)N=C(N)N1c1ccc(F)c(C(F)(F)F)c1
[1]
  T/C: 97 % of control
[10]
  T/C: 61 % of control

## CCCCCCCCCCCCCCCCCCCCCC(=O)Nc1ccn(C2OC(CO)C(O)C2O)c(=O)n1 (stereo not drawn)
[7]
  T/C: 104 % of control
[8]
  T/C: 68 % of control
[9]
  T/C: 75 % of control
[11]
  T/C: 69 % of control
endpoint: median tumor weight (est.), dose: 200.0 mg/kg/injection, schedule: Q07DX005 (ip), vehicle: saline with Tween-80
  T/C: 49 % of control
[12]
  T/C: 53 % of control

## CCCCCCCCCCCCN1C(C)=CS/C1=C\C=C\c1scc(C)[n+]1CCCCCCCCCCCC
endpoint: median tumor weight change, dose: 7.82 mg/kg/injection, schedule: Q01DX001 (ip), vehicle: saline with Tween-80
  T/C: 80 % of control
endpoint: median tumor weight change, dose: 15.63 mg/kg/injection, schedule: Q01DX001 (ip), vehicle: saline with Tween-80
  T/C: 92 % of control
endpoint: median tumor weight change, dose: 31.25 mg/kg/injection, schedule: Q01DX001 (ip), vehicle: saline with Tween-80
  T/C: 65 % of control

## C(COCCOCC1CO1)OCCOCC1CO1 (stereo not drawn)
[7]
  T/C: 69 % of control
[8]
  T/C: 91 % of control
[9]
  T/C: 68 % of control
[11]
  T/C: 110 % of control
[12]
  T/C: 112 % of control

## CC[C@](C)(O)C(=O)O[C@H]1C(=O)O[C@@H]2C[C@H]3C(C)=CC(=O)[C@@H](O)[C@]3(C)[C@H]3[C@@]4(O)OC[C@]32[C@@H]1[C@@H](C)[C@H]4O
endpoint: median tumor weight (est.), dose: 0.06 mg/kg/injection, schedule: Q07DX005 (ip), vehicle: Klucel (hydroxypropylcellulose) (HPC)
  T/C: 116 % of control
endpoint: median tumor weight (est.), dose: 0.12 mg/kg/injection, schedule: Q07DX005 (ip), vehicle: Klucel (hydroxypropylcellulose) (HPC)
  T/C: 108 % of control
endpoint: median tumor weight (est.), dose: 0.5 mg/kg/injection, schedule: Q07DX005 (ip), vehicle: Klucel (hydroxypropylcellulose) (HPC)
  T/C: 73 % of control
endpoint: median tumor weight change, dose: 1.0 mg/kg/injection, schedule: Q01DX001 (ip), vehicle: Klucel (hydroxypropylcellulose) (HPC)
  T/C: 79 % of control

## COc1cccc2c1C(=O)c1c(O)c3c(c(O)c1C2=O)C[C@@](O)(C(=O)CO)C[C@@H]3OC1CC(OC(C)=O)C(OC(C)=O)C(C)O1 (stereo partly drawn)
endpoint: median tumor weight (est.), dose: 3.12 mg/kg/injection, schedule: Q07DX005 (ip), vehicle: distilled water + Tween-80
  T/C: 65 % of control
endpoint: median tumor weight (est.), dose: 6.25 mg/kg/injection, schedule: Q07DX005 (ip), vehicle: distilled water + Tween-80
  T/C: 58 % of control
endpoint: median tumor weight (est.), dose: 12.5 mg/kg/injection, schedule: Q07DX005 (ip), vehicle: distilled water + Tween-80
  T/C: 6 % of control
endpoint: median tumor weight (est.), dose: 25.0 mg/kg/injection, schedule: Q07DX005 (ip), vehicle: distilled water + Tween-80
  T/C: 13 % of control

## COc1cc2c(c(OC)c1OC)-c1ccc(OC)c(=O)cc1[C@@H](NC(=O)CCl)CC2
endpoint: median tumor weight change, dose: 5.0 mg/kg/injection, schedule: Q01DX001 (ip), vehicle: saline with Tween-80
  T/C: 76 % of control

## CN=C(N)N/N=C(\C)c1ccc2oc3ccc(/C(C)=N/NC(N)=NC)cc3c2c1
[4]
  T/C: 87 % of control
[5]
  T/C: 63 % of control

## CCCCCCCCCCCCCC#CC(=O)O
[4]
  T/C: 75 % of control and 95 % of control
[5]
  T/C: 68 % of control and 81 % of control
endpoint: median tumor weight change, dose: 250.0 mg/kg/injection, schedule: Q01DX001 (ip), vehicle: saline with Tween-80
  T/C: 72 % of control
endpoint: median tumor weight change, dose: 500.0 mg/kg/injection, schedule: Q01DX001 (ip), vehicle: saline with Tween-80
  T/C: 78 % of control

## O=c1[nH]c(=O)c2nc(-c3cccnc3)cnc2[nH]1
[2]
  T/C: 122 % of control
endpoint: median tumor weight (est.), dose: 25.0 mg/kg/injection, schedule: Q07DX005 (ip), vehicle: saline
  T/C: 93 % of control
[3]
  T/C: 58 % of control
[10]
  T/C: 93 % of control
endpoint: median tumor weight (est.), dose: 200.0 mg/kg/injection, schedule: Q07DX005 (ip), vehicle: saline
  T/C: 90 % of control
endpoint: median tumor weight (est.), dose: 400.0 mg/kg/injection, schedule: Q07DX005 (ip), vehicle: saline
  T/C: 62 % of control

## COc1cc2cc3c4cc(OC)c(OC)cc4cc[n+]3c(C)c2cc1OC (tested in a mixture with another compound)
endpoint: median tumor weight (est.), dose: 100.0 mg/kg/injection, schedule: Q07DX005 (ip), vehicle: suspension in saline
  T/C: 97 % of control

## O=c1nc(Oc2ccccc2)nc2ncccn12
[6]
  T/C: 88 % of control
[7]
  T/C: 110 % of control
[8]
  T/C: 100 % of control
[9]
  T/C: 91 % of control
[11]
  T/C: 114 % of control

Reference: PubChem BioAssay AID220 (DTP/NCI, 2004)
